This assay deals with T1, Porcine pancreatic α-amylase (Sus scrofa, UniProt P00690).
T1 construct: purchased Sigma-Aldrich (Milan, Italy)
T1 sequence (P00690 16-511): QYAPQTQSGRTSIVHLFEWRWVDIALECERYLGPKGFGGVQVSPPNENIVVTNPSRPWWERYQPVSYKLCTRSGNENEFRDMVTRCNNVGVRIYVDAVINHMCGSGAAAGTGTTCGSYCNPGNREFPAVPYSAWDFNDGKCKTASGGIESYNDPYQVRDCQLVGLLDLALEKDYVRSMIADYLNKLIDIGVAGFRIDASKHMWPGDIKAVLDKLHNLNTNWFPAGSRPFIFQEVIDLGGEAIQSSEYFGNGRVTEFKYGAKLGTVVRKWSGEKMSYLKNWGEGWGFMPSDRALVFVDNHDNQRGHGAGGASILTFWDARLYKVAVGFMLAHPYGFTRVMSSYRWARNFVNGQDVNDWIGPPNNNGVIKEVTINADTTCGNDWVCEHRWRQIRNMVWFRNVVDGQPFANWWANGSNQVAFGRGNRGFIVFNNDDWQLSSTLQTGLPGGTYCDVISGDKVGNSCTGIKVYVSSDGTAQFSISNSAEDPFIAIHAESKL
Kind of assay: Pancreatic α-amylase inhibition (modified K-AMYLSD kit, p-nitrophenyl-α-D-maltoheptaoside substrate). Format: biochemical. The note with it: for inhibition at 10000 µM: 10 mM final concentration; for Hill cooperativity coefficient (n^H) / Ki: three-parameter Hill equation fit, inhibitor zero to 0.1 mM; for Ki: read-out: Ki^app. How it is done:
The monomeric and dimeric stilbenoids described above were tested for their ability to inhibit the enzyme α-amylase, using acarbose as a reference compound. The method used to evaluate the enzyme activity relies on a two-step procedure. In a first step, α-amylase acts on a modified p-nitrophenyl-α-D-maltoheptaoside, releasing products that may be hydrolyzed by an excess α-glucosidase present in the assay mixture, therefore allowing spectrophotometric quantitation of the released p-nitrophenolate anion.
Porcine pancreatic α-amylase [EC 3.2.1.1] was from Sigma-Aldrich (Milan, Italy). Activity was monitored by using the K-AMYLSD kit from Megazyme (Bray, Ireland), with modifications. An aliquot of α-amylase (0.03 mL, 0.1 μM in 50 mM phosphate buffer, pH 6.8) was added to 0.120 mL of 50 mM phosphate buffer, pH 6.8, in a microtiter plate well. The investigated compounds where then added as methanolic solutions (0.03 mL) of appropriate concentration. The reaction was started by adding 0.02 mL of the substrate solution provided with the kit, resulting in a final concentration of 0.4 μM substrate. The kit-provided substrate solution also contained an excess of thermostable bacterial α-glucosidase, that is required for the release of the p-nitrophenolate anion from the p-nitrophenyl glucosides produced by the activity of α-amylase on the chemically modified maltoheptaoside. At appropriate times, the reaction was stopped by adding 0.1 mL of 0.2 M Na2CO3, and the absorbance was read in a microplate reader set at 405 nm. Blanks were prepared in the absence of the pancreatic α-amylase. […] Acarbose (from a stock solution in methanol) was used as the reference inhibitor. A minimum of three independent replications was carried out for each assay.

Here are results for eight molecules from PMC6766848, “Inhibition of Pancreatic α-amylase by Resveratrol Derivatives: Biological Activity and Molecular Modelling Evidence for Cooperativity between Viniferin Enantiomers” (Molecules, 2019).

Turning to `COc1cc(/C=C/c2ccc3c(c2)[C@@H](c2cc(OC)cc(OC)c2)[C@H](c2ccc(O)cc2)O3)cc(OC)c1` (relative stereo) [compound 8, pterostilbene-trans-dihydrodimer], where the note is “versus controls with 15% MeOH”, the inhibition – broadly, the share of the control response that was lost under treatment – at 10000 µM came out at 28%.

Regarding `Oc1ccc([C@@H]2Oc3ccc(/C=C/c4cc(O)cc(O)c4)cc3[C@H]2c2cc(O)cc(O)c2)cc1` [(R, R)-trans-δ-viniferin], the “Hill cooperativity coefficient (n^H)” value is listed as 1.5 and the Ki stood at 43 µM.

For `Oc1ccc([C@H]2Oc3ccc(/C=C/c4cc(O)cc(O)c4)cc3[C@@H]2c2cc(O)cc(O)c2)cc1` [(S, S)-trans-δ-viniferin], the “Hill cooperativity coefficient (n^H)” value is “four” and the Ki came to 58 µM.

`C[C@H]1O[C@H](O[C@H]2[C@H](O)[C@@H](O)[C@@H](O[C@H]3[C@H](O)[C@@H](O)C(O)O[C@@H]3CO)O[C@@H]2CO)[C@H](O)[C@@H](O)[C@@H]1N[C@H]1C=C(CO)[C@@H](O)[C@H](O)[C@H]1O` (stereo partly shown) [acarbose, reference compound] displayed an inhibition at 1000 µM (1 mM final concentration, versus controls with 15% MeOH) of 86%.

Molecule `COc1cc(/C=C/c2ccc(O)cc2)cc(OC)c1` [compound 2, pterostilbene] yielded an inhibition at 10000 µM (versus controls with 15% MeOH) of 21%.

Where the note is “versus controls with 15% MeOH”, `Oc1ccc(C2Oc3ccc(C=Cc4cc(O)cc(O)c4)cc3C2c2cc(O)cc(O)c2)cc1` (stereo not drawn) [compound 5, Trans-δ-viniferin] returned an inhibition at 10000 µM of around 90%.

On to `Oc1ccc(C=Cc2cc(O)cc3c2C(c2cc(O)cc(O)c2)C(c2ccc(O)cc2)O3)cc1` (stereo not drawn) [compound 6, Trans-ε-viniferin], for which, for the setting “versus controls with 15% MeOH”, the inhibition at 10000 µM was around 90%.

With `Oc1ccc([C@@H]2c3c(O)cc(O)cc3[C@H]3[C@H](c4ccc(O)cc4)c4c(O)cc(O)cc4[C@@H]23)cc1` [compound 7, pallidol], the inhibition at 10000 µM (versus controls with 15% MeOH) is 21 to 45%.
